# System: human patients suffering from osteoarthritis
# Assay: Clinical study in osteoarthritis patients: patient-recorded adverse side effects
# Format: in vivo
# Conditions: 4 weeks
# Description: Four groups of patients were selected and each group was given one or other of the following medications over a four week period:
# All patients were aged from 45-80 and had been suffering from chronic knee pain due to osteoarthritis for at least 6 months. Patients went through a washout period of their existing osteoarthritis treatments. […] At the beginning of the study, and also at conclusion of each subsequent week, patients were required to visit a physician and complete a WOMAC questionnaire and a Global Pain Rating Assessment.
# In terms of adverse side effects patients were asked to keep a record of these, if any.
smiles,measurement,setting,value
"CC(C)Cc1ccc(C(C)C(=O)O)cc1 (centres unmarked) [Ibuprofen, ibuprofen]",adverse side effects recorded,"Ibuprofen High group: 2 × 300 mg ibuprofen tablets four times daily, 2,400 mg per day, both related to gastric discomfort",two probable adverse effects
same,adverse side effects recorded,"Ibuprofen Low group: 2 × 150 mg ibuprofen tablets four times daily, 1,200 mg per day",no confirmed or probable adverse side effects

# — US20110166234A1, “MEDICINAL PRODUCT AND TREATMENT” (priority 2008, published 2011)
